The nature of data set [1]: Pharmacokinetic profile in rat plasma following oral administration. It counts as in vivo. The method, then:
The main objectives of this example were: • Quantification of Compound 1, Compound 2, Compound 3 and Laquinimod in rat plasma using LC/MS/MS bioanalytical method. • Characterization of the pharmacokinetic profile of Compound 1, Compound 2, Compound 3 and Laquinimod following oral (PO) administration at a dose of 0.2 mg/kg. • The measurement DELAQ concentrations in the collected plasma samples. Rats cannulated at the right common jugular vein by polyethylene tubing were used. In the in-life part, three cannulated female rats were treated with each of the four test articles at dose of 0.2 mg/kg. Blood was withdrawn from the rats at five different time points for the preparation of plasma. The concentrations of Compound 1, Compound 2, Compound 3, laquinimod, and DELAQ were determined in these plasma samples, using applicable LC/MS/MS methods. Oral administration was performed by oral gavage at a dosage volume of 5 ml/kg using a blunt feeding stainless steel needle (Popper & Sons, USA). Body weights were measured before dose administration and doses were calculated on the basis of individual body weight. Blood were withdrawn from animals at the following time points: 1, 2, 4, 8 and 24 hours after dosing as detailed in the table below. The actual sampling time were recorded. Each animal was restrained firmly. After the removal of the seal the port of the cannula was accessed with an appropriate blunted needle mounted on a syringe containing PBS. After having withdrawn approximately 100 μL of blood, the syringe was changed to a clean heparinized syringe. Approximately 250 μL of blood was collected for the preparation of plasma. The first 100 μL fraction of blood was returned and 250 μL of PBS was given to the animal through the catheter. The catheter was filled by heparinized glycerol (100 IU/ml) solution prepared by mixing 10 ml stock heparin (200 IU/ml) with 10 ml of sterile glycerol (d=1.26 g/mL). Blood specimens were mixed immediately and were placed on water ice. Whole blood was centrifuged at 2500 g for 10 min at 4° C., and the separated plasma was transferred into pre-labeled polypropylene tubes and the tubes were frozen at −70° C. within 70 minutes of collection. The concentrations of test items (Compound 1, Compound 2, Compound 3 and Laquinimod) and the concentration of DELAQ were determined in the plasma samples by using reliable LC/MS/MS assay. Pharmacokinetic parameters were calculated and the mean plasma levels versus time curves were evaluated. The following pharmacokinetic parameters were determined from the mean plasma concentration-time data (mean of three animals at each time point) of Compound 1, Compound 2, Compound 3 and Laquinimod.

The subject of a further data set is MOG induced EAE. The data set can be described thus: MOG induced EAE in C57BL/6 mice. It is filed as in vivo. The settings on record: 10 mg/kg orally, daily; for Mortality: Day 0 to Day 30; for % inhibition 1 (according to incidence) / % inhibition 2 (according to MMS) / % inhibition 3 (according to GMS): compared to vehicle; for Incidence: sick mice/group.
A further data set relates to CYP1A2. The settings on record: human, 3 days; for Enzyme activity, Phenacetin O-dealkylation (CYP1A2) / Percent positive control, Phenacetin O-dealkylation (CYP1A2) activity: hepatocytes. How it is done: (§1) After treatment, the cells were incubated in situ with marker substrates for the analysis of phenacetin O-dealkylation (marker for CYP1A2) and midazolam 1′-hydroxylation (marker for CYP3A4/5) by LC/MS/MS.
Incubations of hepatocytes with probe substrates were conducted in accordance with SOP L5041.02. Approximately 24 hours after the last treatment, spent media was aspirated from the wells, and each well was rinsed two times with pre-warmed (37±2° C.) fresh culture media. Media was aspirated from the wells and reactions were started by addition of 200 μL pre-warmed media containing the probe substrate to each well. […] At 30 minutes, an aliquot (150 μL) of the incubation mixture was removed and added to a well of a 96-well plate containing 300 μL of stop reagent (acetonitrile) and internal standard (Table 2). The mixtures were mixed thoroughly and allowed to sit for at least 15 minutes at 2-8° C. Samples were centrifuged at 2000×g for 10 minutes at 2-8° C., and supernatant fractions were analyzed by LC/MS/MS.
All analyses were performed with validated LC/MS/MS methods. The procedures used for the analysis of each metabolite followed the applicable LC/MS/MS analytical method SOPs and are summarized in Table 2. The MS equipment was either an ABI Sciex (Applied Biosystems/MDS SCIEX) API 4000 or API 3000 instrument with Shimadzu HPLC pumps and autosampler systems.
Individual rates of reaction from like treatment groups were averaged, and for those groups with n≧3, standard deviations were determined. Fold increases were determined by dividing the enzymatic rate for each treatment group by that of the vehicle control. Percent positive control was calculated with the following equation: […]

A further data set deals with CYP1A2 mRNA. Conditions: human, 3 days. The method, then: as §1
Approximately 24 hours after the last treatment, hepatocytes were lysed in TRIzol reagent after the in situ marker substrate incubations, and cell lysates were stored at −75±5° C. For human hepatocyte preparation H971, media from six wells per treatment group was aspirated, and approximately 132 μL TRIzol were added to each well. The cell lysates were mixed by repeated pipetting. Total RNA was isolated from the cell lysates using the TRIzol protocol (Invitrogen) and was purified using the RNeasy Mini Kit (Qiagen Inc.) according to SOP L6161.02. RNA quality and concentration were determined by measuring absorbance at 260 and 280 nm on a BioTek Synergy HT plate reader (BioTek Instruments, Inc.) with KC4 Signature software (version 3.4 Rev 21, BioTek Instruments, Inc.) according to SOP L6162.02. The analysis of RNA integrity was carried out with the RNA 6000 Nano Assay Kit on an Agilent 2100 Bioanalyzer (Agilent Technologies, Inc.) according to SOP L6162.02. Single-stranded cDNA was prepared from RNA with the RT Master Mix using the AB 7300 Real Time PCR system thermocycling program or AB 7900HT Fast Real Time PCR System thermocycling program (Applied Biosystems) according to SOP L6160.04. […] The RT Master Mix was added to each RNA sample to complete the components of the reaction. No template controls (NTCs) were included in the analysis. For the NTC reactions, RNase-free water was added in place of the RNA sample. The cDNA prepared samples were stored at −20±5° C. prior to analysis by qRT-PCR.
Quantitative RT-PCR was carried out according to SOP L6160.04 (XenoTech, LLC) and the Applied Biosystems protocol. Each PCR was performed in triplicate. A Primer Mix was prepared for each Gene Expression assay. A typical Primer Mix contained TaqMan Universal Master Mix (1×), Gene Expression Assay (1×, 900 nM forward and reverse primers) and RNase-free water. The Reaction Mix was prepared by adding the Primer Mix to cDNA. A percentage of samples (no less than 10%) included NACs. […] The relative quantity of the target cDNA compared with that of the control cDNA (GAPDH) was determined by the ΔΔCt method (Applied Biosystems User Bulletin #2). Relative quantification measures the change in mRNA expression in a test sample relative to that in a control sample (e.g., DMSO). This method assumes that the efficiency of the target amplification and the efficiency of the endogenous control amplification are approximately equal.
For qRT-PCR, data were processed using the Sequence Detection System (SDS) Software version 1.4, for Relative Quantification (Applied Biosystems). This software analyzes relative gene expression using the comparative Ct method (ΔΔCt), which relates the PCR signal of the target transcript to the PCR signal of the target in an untreated control. Both the treated sample and the untreated control signals are normalized to the endogenous control (GAPDH), for which expression is not affected by treatment and expression is constant throughout the tissue being tested. […] Calculations are as follows: ΔCt=Ct(target)−Ct(endogenous control) 1. ΔΔCt=ΔCt(treated sample)−ΔCt(untreated control) 2. Fold change in expression=2−ΔΔCt 3.
The level of mRNA expression relative to the positive control was calculated as follows: […]

Where [2] appears, read: female, rat, po, 0.2 mg/kg, Average of rats.
The mark [3] stands for this setting: female, rat, po, 0.2 mg/kg, Average of rats, read-out: Cmax.
Where [4] appears, read: female, rat, po, 0.2 mg/kg, Average of rats, read-out: Tmax.
[5] abbreviates: female, rat, po, 0.2 mg/kg, individual rats.
[6] abbreviates: female, rat, po, 0.2 mg/kg, individual rats, read-out: Cmax.
Setting [7] is: female, rat, po, 0.2 mg/kg, individual rats, read-out: Tmax.
The mark [8] stands for this setting: individual rats, oral 0.2 mg/kg.

“And” between values parts separate entries of the source, which are not always exact repeats. Identical values can stand only once. Like-named read-outs stand apart in the source and are kept apart here.

With `[2H]c1c([2H])c([2H])c(N(CC)C(=O)c2c(O)c3c(Cl)cccc3n(C)c2=O)c([2H])c1[2H]` [Compound 1, N-ethyl-N-D5-phenyl-1,2-dihydro-4-hydroxy-5-chloro-1-methyl-2-oxoquinoline-3-carboxamide], in data set [1] (setting [2]), the AUC(0-inf) turned out to be 13800 ng·h/mL, the AUC(0-t) came out at 10400 ng·h/mL and the half-life is 678 min. In addition, in data set [1] (setting [3]), the Cmax amounted to 774 ng/mL. The time to peak (Tmax) in data set [1] (setting [4]) was 1.8 h. In data set [1] (setting [5]), this compound had an AUC(0-inf) of 19300 ng·h/mL, an AUC(0-t) of 13700 ng·h/mL and a half-life of 804 min. Moreover, the Cmax in data set [1] (setting [6]) was found to be 945 ng/mL. For the same compound, the Tmax in data set [1] (setting [7]) was found to be 1 h. For the same compound, in data set [1] (setting [8]), the AUCinf was 13617.9 ng·h/mL and 9733.8 ng·h/mL and 12447.9 ng·h/mL; the AUClast was 10011.7 ng·h/mL and 8039.3 ng·h/mL and 10061.6 ng·h/mL; the peak concentration (Cmax) was 730.7 ng/mL and 611.9 ng/mL and 809.5 ng/mL; the T1/2 was 12.1 h and 9.5 h and 10.0 h. Moreover, in data set [1] (setting [8]), the time of peak concentration (Tmax) is 2.0 h. In the data set with MOG induced EAE, the “GMS value (group mean score)” value came out at 0.74 ± 0.86, the “MMS value (mean maximal score)” value is given as 1.5 ± 1.7, the “Mean Duration” value is listed as 7.9 ± 8.2 days and the “Mean Onset” value is listed as 22.1 ± 8.9 days. Moreover, in the data set on MOG induced EAE, the “activity in inhibition of EAE clinical signs compared to laquinimod” value was “no significant difference in activity”, the Mortality is 0/15, the “% inhibition 1 (according to incidence)” value was found to be 42.9% and the “% inhibition 2 (according to MMS)” value is given as 53.1%. In addition, in the data set with MOG induced EAE, the “% inhibition 3 (according to GMS)” value is recorded as 66.5% and the Incidence was 8/15.
In data set [1] (setting [2]), `[2H]c1c([2H])c([2H])c(N(C(=O)c2c(O)c3c(Cl)cccc3n(C)c2=O)C([2H])([2H])C([2H])([2H])[2H])c([2H])c1[2H]` [Compound 3, N-D5-ethyl-N-D5-phenyl-1,2-dihydro-4-hydroxy-5-chloro-1-methyl-2-oxoquinoline-3-carboxamide] had an AUC(0-inf) of 15800 ng·h/mL, an AUC(0-t) of 10500 ng·h/mL and a half-life of 744 min. In addition, the peak concentration (Cmax) in data set [1] (setting [3]) was 835 ng/mL. In addition, in data set [1] (setting [4]), the time of peak concentration (Tmax) worked out at 1.4 h. In addition, in data set [1] (setting [5]), the AUC(0-inf) amounted to 15800 ng·h/mL and the half-life is 690 min. Moreover, in data set [1] (setting [6]), the Cmax worked out at 908 ng/mL. Moreover, the Tmax in data set [1] (setting [7]) was 1 h. In addition, in data set [1] (setting [8]), the AUCinf is 18246.2 ng·h/mL and 15225.2 ng·h/mL and 14845.1 ng·h/mL and 14643.7 ng·h/mL; the AUClast was 12110.0 ng·h/mL and 12471.5 ng·h/mL and 11280.4 ng·h/mL and 5317.8 ng·h/mL and 11156.0 ng·h/mL; the Cmax is 800.4 ng/mL and 728.9 ng/mL and 833.2 ng/mL and 904.3 ng/mL; the T1/2 is 14.4 h and 12.7 h and 12.0 h and 11.6 h. For the same compound, the Tmax in data set [1] (setting [8]) was 2.0 h. In the data set with MOG induced EAE, the “GMS value (group mean score)” value is reported as 0.89 ± 0.94, the “MMS value (mean maximal score)” value stood at 1.6 ± 1.6, the “Mean Duration” value is 9.6 ± 9.4 days and the “Mean Onset” value turned out to be 21.5 ± 9.3 days. For the same compound, in the data set with MOG induced EAE, the “activity in inhibition of EAE clinical signs compared to laquinimod” value is recorded as “no significant difference in activity”, the Mortality is listed as 0/15, the “% inhibition 1 (according to incidence)” value was 28.6% and the “% inhibition 2 (according to MMS)” value came to 50.1%. In addition, in the data set with MOG induced EAE, the “% inhibition 3 (according to GMS)” value is on record as 59.7% and the Incidence is 10/15.
Turning to `COCC(=O)O[C@]1(CCN(C)CCCc2nc3ccccc3[nH]2)CCc2cc(F)ccc2[C@@H]1C(C)C` [Mibefradil], in the data set on CYP1A2 (10 μM), the “Fold Increase, Phenacetin O-dealkylation (CYP1A2) activity” value came out at 3.76 fold; the “Enzyme activity, Phenacetin O-dealkylation (CYP1A2)” value was found to be 11.3 ± 2.1 pmol/mg protein/min; the “Percent positive control, Phenacetin O-dealkylation (CYP1A2) activity” value worked out at 10.1%. Besides, in the data set on CYP1A2 mRNA (10 μM), the “mRNA Fold increase, CYP1A2” value was determined as 0.423 fold. Further, in the data set with CYP1A2 mRNA (hepatocytes, 10 μM), the “decrease in CYP1A2 mRNA levels compared to vehicle control” value amounted to 57.7% and the “mRNA Percent positive control, CYP1A2” value was −7.61%.
As for `COc1ccc2[nH]c([S+]([O-])Cc3ncc(C)c(OC)c3C)nc2c1` (centres unmarked) [Omeprazole], in the data set on CYP1A2 (100 μM), the “Enzyme activity, Phenacetin O-dealkylation (CYP1A2)” value was found to be 84.9 ± 5.4 pmol/mg protein/min and the “Percent positive control, Phenacetin O-dealkylation (CYP1A2) activity” value is reported as 100%. Moreover, the “mRNA Fold increase, CYP1A2” value in the data set on CYP1A2 mRNA (100 μM) was found to be 8.58 fold. The “mRNA Percent positive control, CYP1A2” value in the data set with CYP1A2 mRNA (hepatocytes, 100 μM) is 100%.

Source of the values: patent US9102620B2, “Deuterated N-ethyl-N-phenyl-1,2-dihydro-4-hydroxy-5-chloro-1-methyl-2-oxoquinoline-3-carboxamide, salts and uses thereof” (TEVA PHARMACEUTICAL INDUSTRIES, LTD., priority 2010, dated 2015).
